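These data come from cells grown in 96-well plates and exposed to compound for 48 hours at five concentrations. Here, GI50 denotes the concentration required for 50% inhibition of growth.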 The source made the active and inactive calls. Cut-off read from the data, not from the text of the source: active = GI50 up to about 1.1 µM and inactive = higher.
Legend:
Assay in all cases: NCI anticancer screen, dose series, 48 h
[1] = test system: SF-268
[2] = test system: OVCAR-4
[3] = test system: SNB-75
[4] = test system: OVCAR-3
[5] = test system: PC-3
[6] = test system: NCI-H23
[7] = test system: SK-MEL-2
[8] = test system: SK-MEL-28
[9] = test system: OVCAR-5
[10] = test system: MDA-MB-231
[11] = test system: M14
[12] = test system: NCI-H522
[13] = test system: HCT-15
[14] = test system: CAKI-1
[15] = test system: COLO 205
[16] = test system: MDA-MB-435
[17] = test system: LOX IMVI
[18] = test system: RPMI-8226
[19] = test system: SNB-19
[20] = test system: SW-620
[21] = test system: NCI-H460
[22] = test system: DU-145
[23] = test system: SK-OV-3
[24] = test system: HCT-116
[25] = test system: SK-MEL-5
[26] = test system: CCRF-CEM
[27] = test system: UO-31
[28] = test system: IGROV-1
[29] = test system: MOLT-4
[30] = test system: HOP-92
[31] = test system: MCF7
[32] = test system: SF-295
[33] = test system: K562
[34] = test system: SF-539
[35] = test system: NCI/ADR-RES
[36] = test system: U-251
[37] = test system: SN12C
[38] = test system: HL-60
[39] = test system: T47D
[40] = test system: ACHN
[41] = test system: HCC 2998
[42] = test system: UACC-257
[43] = test system: OVCAR-8
[44] = test system: A549
[45] = test system: RXF 393
[46] = test system: UACC-62
[47] = test system: TK-10
[48] = test system: EKVX
[49] = test system: HT-29
[50] = test system: KM12
[51] = test system: SR
[52] = test system: Hs-578T
[53] = test system: MDA-N
[54] = test system: Malme-3M
[55] = test system: HOP-62
[56] = test system: 786-0
[57] = test system: NCI-H226
[58] = test system: BT-549
[59] = test system: A498

In the case of NC(Cc1ccc(CP(=O)(O)O)cc1)C(=O)O (stereo unspecified), the GI50 [1] is reported as > 100 µM (inactive), the GI50 [2] is reported as > 100 µM (inactive) and the GI50 [3] is reported as > 100 µM (inactive). For the same molecule, the GI50 [4] was > 100 µM (inactive), the GI50 [5] was > 100 µM (inactive) and the GI50 [6] was > 100 µM (inactive). The GI50 [7] was > 100 µM (inactive), the GI50 [8] was > 100 µM (inactive) and the GI50 [9] was > 100 µM (inactive). The GI50 [10] was > 100 µM (inactive), the GI50 [11] was > 100 µM (inactive) and the GI50 [12] was > 100 µM (inactive). For the same molecule, the GI50 [13] was > 100 µM, the GI50 [14] was 11.5 µM (inactive) and the GI50 [15] was > 100 µM (inactive). For the same molecule, the GI50 [16] was > 100 µM (inactive), the GI50 [17] was > 100 µM (inactive) and the GI50 [18] was > 100 µM (inactive). The GI50 [19] was > 100 µM (inactive), the GI50 [20] was > 100 µM (inactive) and the GI50 [21] was > 100 µM (inactive). For the same molecule, the GI50 [22] was > 100 µM (inactive), the GI50 [23] was > 100 µM (inactive) and the GI50 [24] was > 100 µM (inactive). For the same molecule, the GI50 [25] was > 100 µM (inactive), the GI50 [26] was > 100 µM (inactive) and the GI50 [27] was > 100 µM (inactive). The GI50 [28] was > 100 µM (inactive), the GI50 [29] was > 100 µM (inactive) and the GI50 [30] was > 100 µM (inactive). For the same molecule, the GI50 [31] was > 100 µM (inactive), the GI50 [32] was > 100 µM (inactive) and the GI50 [33] was > 100 µM (inactive). The GI50 [34] was > 100 µM (inactive), the GI50 [35] was > 100 µM (inactive) and the GI50 [36] was > 100 µM (inactive). The GI50 [37] was > 100 µM (inactive), the GI50 [38] was > 100 µM (inactive) and the GI50 [39] was > 100 µM (inactive). For the same molecule, the GI50 [40] was > 100 µM (inactive), the GI50 [41] was > 100 µM (inactive) and the GI50 [42] was > 100 µM (inactive). The GI50 [43] was > 100 µM (inactive), the GI50 [44] was > 100 µM (inactive) and the GI50 [45] was > 100 µM (inactive). The GI50 [46] was > 100 µM (inactive), the GI50 [47] was > 100 µM (inactive) and the GI50 [48] was > 100 µM (inactive). For the same molecule, the GI50 [49] was > 100 µM (inactive), the GI50 [50] was > 100 µM (inactive) and the GI50 [51] was > 100 µM (inactive). The GI50 [52] was > 100 µM (inactive) and the GI50 [53] was > 100 µM (inactive).
For Cn1c(=O)n2c(-c3ccccc3)c(-c3ccccc3)n2c1=O, the GI50 [2] was > 100 µM (inactive), the GI50 [3] was 99.1 µM (inactive) and the GI50 [4] was > 100 µM (inactive). For the same molecule, the GI50 [54] was > 100 µM (inactive), the GI50 [5] was > 100 µM (inactive) and the GI50 [6] was > 100 µM (inactive). The GI50 [55] was > 100 µM (inactive), the GI50 [7] was > 100 µM (inactive) and the GI50 [8] was > 100 µM (inactive). The GI50 [9] was > 100 µM (inactive), the GI50 [10] was > 100 µM (inactive) and the GI50 [11] was > 100 µM (inactive). The GI50 [13] was > 100 µM, the GI50 [14] was > 100 µM (inactive) and the GI50 [15] was > 100 µM (inactive). For the same molecule, the GI50 [17] was > 100 µM (inactive), the GI50 [56] was > 100 µM (inactive) and the GI50 [19] was > 100 µM (inactive). For the same molecule, the GI50 [20] was > 100 µM (inactive), the GI50 [21] was > 100 µM (inactive) and the GI50 [23] was > 100 µM (inactive). The GI50 [24] was > 100 µM (inactive), the GI50 [25] was > 100 µM (inactive) and the GI50 [26] was > 100 µM (inactive). For the same molecule, the GI50 [27] was 82 µM (inactive), the GI50 [57] was > 100 µM (inactive) and the GI50 [58] was > 100 µM (inactive). For the same molecule, the GI50 [28] was > 100 µM (inactive), the GI50 [29] was > 100 µM (inactive) and the GI50 [59] was > 100 µM (inactive). The GI50 [30] was > 100 µM (inactive), the GI50 [31] was > 100 µM (inactive) and the GI50 [32] was > 100 µM (inactive). For the same molecule, the GI50 [33] was > 100 µM (inactive), the GI50 [34] was > 100 µM (inactive) and the GI50 [35] was > 100 µM (inactive). The GI50 [36] was > 100 µM (inactive), the GI50 [37] was > 100 µM (inactive) and the GI50 [38] was 46.9 µM (inactive). The GI50 [40] was > 100 µM (inactive), the GI50 [41] was > 100 µM (inactive) and the GI50 [42] was > 100 µM (inactive). The GI50 [43] was > 100 µM (inactive), the GI50 [44] was > 100 µM (inactive) and the GI50 [45] was > 100 µM (inactive). The GI50 [46] was > 100 µM (inactive), the GI50 [47] was > 100 µM (inactive) and the GI50 [48] was > 100 µM (inactive). For the same molecule, the GI50 [49] was > 100 µM (inactive), the GI50 [50] was > 100 µM (inactive) and the GI50 [51] was > 100 µM (inactive). For the same molecule, the GI50 [52] was > 100 µM (inactive) and the GI50 [53] was > 100 µM (inactive).

From ChEMBL document CHEMBL1201862, “PubChem BioAssay data set” (2004)
